Experimental data as given in ChEMBL document CHEMBL2303647, “Data associated with the publication PLoS ONE, 8(3), e57888, (2013) PMID: 23505445. Compounds: GSK PKIS; Assays: NIH NCATS”.

Key:
[1] = biological target: Luciferin 4-monooxygenase (Photinus pyralis, UniProt P08659)
Description: GSK_PKIS: Inhibition of Firefly Luciferase (Data from PubChem: AID 652016) [NIH NCATS]

[2] = biological target: T1, Coelenterazine h 2-monooxygenase (Renilla reniformis, UniProt P27652)
T1 sequence (P27652 whole entry): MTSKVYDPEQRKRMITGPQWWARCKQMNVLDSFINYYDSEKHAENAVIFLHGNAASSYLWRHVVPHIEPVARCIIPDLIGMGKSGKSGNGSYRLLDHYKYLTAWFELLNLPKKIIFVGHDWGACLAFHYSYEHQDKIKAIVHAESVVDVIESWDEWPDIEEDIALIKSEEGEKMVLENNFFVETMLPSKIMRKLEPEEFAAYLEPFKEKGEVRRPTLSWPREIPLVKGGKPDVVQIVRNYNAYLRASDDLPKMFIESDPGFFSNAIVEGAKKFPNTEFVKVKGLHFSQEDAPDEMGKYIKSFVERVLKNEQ
Description: GSK_PKIS: Inhibition of Sea Pansy Luciferase (Data from PubChem: AID 652015) [NIH NCATS]

Sequence of Luciferin 4-monooxygenase (P08659 whole entry): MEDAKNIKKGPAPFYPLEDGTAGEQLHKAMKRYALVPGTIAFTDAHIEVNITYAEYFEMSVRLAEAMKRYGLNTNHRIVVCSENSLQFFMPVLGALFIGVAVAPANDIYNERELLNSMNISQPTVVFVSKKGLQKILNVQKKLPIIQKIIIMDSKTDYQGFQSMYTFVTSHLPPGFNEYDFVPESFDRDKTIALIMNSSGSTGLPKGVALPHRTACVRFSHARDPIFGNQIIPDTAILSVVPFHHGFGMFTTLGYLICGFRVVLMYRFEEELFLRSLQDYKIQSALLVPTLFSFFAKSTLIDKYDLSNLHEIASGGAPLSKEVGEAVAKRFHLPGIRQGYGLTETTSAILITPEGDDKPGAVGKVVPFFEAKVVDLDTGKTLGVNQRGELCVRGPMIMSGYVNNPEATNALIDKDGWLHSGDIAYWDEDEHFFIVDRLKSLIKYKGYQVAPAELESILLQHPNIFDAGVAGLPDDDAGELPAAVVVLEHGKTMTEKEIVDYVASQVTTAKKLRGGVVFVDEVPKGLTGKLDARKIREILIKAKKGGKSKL

Structure (SMILES) | AC50 [1] | AC50 [2] | AC50 ([2]; read-out: AC50) [µM] | AC50 ([1]; read-out: AC50) [µM]
CCn1c(-c2nonc2N)nc2c(C#CC(C)(C)O)ncc(OCC3CCNCC3)c21.O=C(O)C(F)(F)F [GSK-554170A] | Phenotype: Inactive; Curve_Description: None | Phenotype: Inactive; Curve_Description: None | – | –
CCn1c(-c2nonc2N)nc2c(C#CCN)ncc(OCCCN)c21.O=C(O)C(F)(F)F [GSK-561866B] | Phenotype: Inactive; Curve_Description: None | – | 23.1 | –
C[C@@H](Oc1cc(-n2cnc3ccc(OCC4CCN(C)CC4)cc32)sc1C(N)=O)c1ccccc1Cl [GSK-571989A] | Phenotype: Inactive; Curve_Description: None | – | 20.6 | –
C[C@@H](Oc1cc(-n2cnc3ccc(OC4CCN(C)CC4)cc32)sc1C(N)=O)c1ccccc1Cl [GSK-579289A] | Phenotype: Inactive; Curve_Description: None | – | 20.6 | –
CS(=O)(=O)Nc1ccc(-c2cc(-c3ccccc3)cc(C(N)=O)c2N)cc1 [GSK-586581A] | Phenotype: Inactive; Curve_Description: None | Phenotype: Inactive; Curve_Description: None | – | –
COc1ccc(-c2ccncc2)cc1C(N)=O [GSK-605714A] | Phenotype: Inactive; Curve_Description: None | Phenotype: Inactive; Curve_Description: None | – | –
CCn1c(-c2nonc2N)nc2c(C#CC(C)(C)O)ncc(OC[C@@H]3CCCN3)c21.O=C(O)C(F)(F)F [GSK-614526A] | Phenotype: Inactive; Curve_Description: None | – | 18.3 | –
CCn1c(-c2nonc2N)nc2c(C#CC(C)(C)O)ncc(OC3CCNCC3)c21.O=C(O)C(F)(F)F [GSK-619487A] | Phenotype: Inactive; Curve_Description: None | Phenotype: Inactive; Curve_Description: None | – | –
NC(=O)c1cc(-c2ccc(F)cc2)cc(-c2ccncc2)c1N [GSK-620503A] | Phenotype: Inactive; Curve_Description: None | Phenotype: Inactive; Curve_Description: None | – | –
NC(=O)c1cc(-c2ccncc2)cc(-c2ccccc2)c1N [GSK-625137A] | – | Phenotype: Inactive; Curve_Description: None | – | 41.1
CNC(=O)c1cc(-c2ccc(F)cc2)cc(-c2ccc(S(=O)(=O)N3CCCC3)cc2)c1N [GSK-635416A] | Phenotype: Inactive; Curve_Description: None | Phenotype: Activator; Curve_Description: None | – | –
COc1c(C(N)=O)cc(-c2ccc(Cl)cc2)cc1-c1ccc(S(N)(=O)=O)cc1 [GSK-711701A] | – | Phenotype: Inactive; Curve_Description: None | – | 29.1
CCn1cc(-c2ccnc3[nH]ccc23)c(-c2cccc(NC(=O)Nc3ccc(OCc4ccccc4)cc3)c2)n1 [GSK-718429A] | Phenotype: Inactive; Curve_Description: None | Phenotype: Inactive; Curve_Description: None | – | –
CCn1c(-c2nonc2N)nc2c(C#CC(C)(C)O)nc(OC[C@@H](N)c3ccccc3)cc21 [GSK-938890A] | Phenotype: Inactive; Curve_Description: None | – | 29.1 | –
CCn1c(-c2nonc2N)nc2c(C#CC(C)(C)O)nc(OC[C@H](N)c3ccccc3)cc21 [GSK-943949A] | Phenotype: Inactive; Curve_Description: None | – | 29.1 | –
CCn1c(-c2nonc2N)nc2c(C#CC(C)(C)O)nc(OCCNC)cc21.Cl [GSK-949675A] | Phenotype: Inactive; Curve_Description: None | – | 20.6 | –
NS(=O)(=O)c1ccc(-c2cc3ccncc3cc2OCc2ccccc2)cc1 [GSK-953913A] | Phenotype: Inactive; Curve_Description: None | – | 5.8 | –
Fc1cccc(COc2ccc(Nc3ncnc4sc(-c5ccco5)cc34)cc2Cl)c1 [GSK-969786A] | Phenotype: Inactive; Curve_Description: None | Phenotype: Inactive; Curve_Description: None | – | –
C[C@@H](Oc1cc(-n2cnc3ccc(OC[C@@H](O)CO)cc32)sc1C(N)=O)c1ccccc1Cl [GSK-978744A] | Phenotype: Inactive; Curve_Description: None | Phenotype: Inactive; Curve_Description: None | – | –
NS(=O)(=O)c1cccc(-c2cc3ccncc3cc2OCc2ccccc2)c1 [GSK-980961A] | Phenotype: Inactive; Curve_Description: None | – | 25.9 | –
CCCN1CCC=C(c2ccc(Nc3nc(Nc4ccccc4C(N)=O)c4cc[nH]c4n3)c(C)c2)C1 [GSK-994854A] | Phenotype: Inactive; Curve_Description: None | – | 46.1 | –
CCn1c(-c2nonc2N)nc2c(C#CC(C)(C)O)nc(CN3CCCC3)cc21 [GSK-1000163A] | Phenotype: Inactive; Curve_Description: None | Phenotype: Inactive; Curve_Description: None | – | –
CCn1c(-c2nonc2N)nc2c(C#CC(C)(C)O)nc(O[C@@H](CN)c3ccccc3)cc21.O=C(O)C(F)(F)F [GSK-1007102B] | Phenotype: Inactive; Curve_Description: None | – | 29.1 | –
NC(=O)c1sc(-n2cnc3ccccc32)cc1OCc1ccccc1Br [GSK-1023156A] | Phenotype: Inactive; Curve_Description: None | – | 25.9 | –

Structure (SMILES) | AC50 [1] | AC50 [2] | AC50 ([2]; read-out: AC50) [µM] | AC50 ([1]; read-out: AC50) [µM]
COC(=O)c1sc(-n2cnc3cc(OC)c(OC)cc32)cc1OCc1ccccc1C(F)(F)F [GSK-1030058A] | Phenotype: Inactive; Curve_Description: None | Phenotype: Inactive; Curve_Description: None | – | –
COc1cc2ncn(-c3cc(OCc4ccccc4C(F)(F)F)c(C(C)=O)s3)c2cc1OC [GSK-1030059A] | Phenotype: Inactive; Curve_Description: None | Phenotype: Inactive; Curve_Description: None | – | –
CNC(=O)c1sc(-n2cnc3cc(OC)c(OC)cc32)cc1OCc1ccccc1C(F)(F)F [GSK-1030061A] | Phenotype: Inactive; Curve_Description: None | Phenotype: Inactive; Curve_Description: None | – | –
COc1cc2ncn(-c3cc(OCc4ccccc4C(F)(F)F)c(C(=O)N(C)C)s3)c2cc1OC [GSK-1030062A] | Phenotype: Inactive; Curve_Description: None | – | 23.1 | –
CCCN1CCCC(c2ccc(Nc3nc(Nc4cc(F)ccc4C(N)=O)c4cc[nH]c4n3)c(OC)c2)C1 (centres undefined) [GSK-1173862A] | Phenotype: Inactive; Curve_Description: None | – | 32.6 | –
COc1cc(N2CCN(C(C)C)CC2)ccc1Nc1nc(Nc2ccc(F)cc2C(N)=O)c2cc[nH]c2n1 [GSK-1220512A] | – | – | 20.6 | 25.9
CCCN1CCC(c2ccc(Nc3nc(Nc4cc(F)ccc4C(N)=O)c4cc[nH]c4n3)c(OC)c2)CC1 [GSK-1326255A] | Phenotype: Inactive; Curve_Description: None | – | 18.3 | –
COc1cc(N2CCN(C(C)C)CC2)ccc1Nc1nc(Nc2ccc(F)cc2C(=O)NC[C@@H](O)CO)c2cc[nH]c2n1 [GSK-1392956A] | Phenotype: Inactive; Curve_Description: None | Phenotype: Inactive; Curve_Description: None | – | –
COc1cc(N2CCN(C(C)C)CC2)ccc1Nc1nc(Nc2cccc3ncccc23)c2cc[nH]c2n1 [GSK-1511931A] | – | – | 18.3 | 25.9
CCCN1CCC(Oc2cc(Nc3nc(Nc4cccc(F)c4C(N)=O)c4cc[nH]c4n3)c(OC)cc2Cl)CC1 [GSK-1713088A] | – | Phenotype: Activator; Curve_Description: None | – | 0.291
COc1cc2c(cc1Nc1nc(Nc3cccc(F)c3C(N)=O)c3cc[nH]c3n1)N(C(=O)CN1CCN(C(C)C)CC1)CC2 [GSK-1751853A] | Phenotype: Inactive; Curve_Description: None | – | 36.6 | –
COc1cc(N2CCN(C(C)C)CC2)ccc1Nc1nc(Nc2cccc(F)c2C(=O)O)c2cc[nH]c2n1 [GSK-1819799A] | Phenotype: Inactive; Curve_Description: None | Phenotype: Inactive; Curve_Description: None | – | –
COc1cc2c(cc1Nc1nc(Nc3ccsc3C(N)=O)c3cc[nH]c3n1)N(C(=O)CN(C)C)CCC2 [GSK-2110236A] | Phenotype: Inactive; Curve_Description: None | – | 46.1 | –
COc1cc2c(cc1Nc1nc(Nc3ccsc3C(N)=O)c3cc[nH]c3n1)N(C(=O)CN(C)C)CCC2(C)C [GSK-2163632A] | Phenotype: Inactive; Curve_Description: None | Phenotype: Inactive; Curve_Description: None | – | –
COc1cc2c(cc1Nc1nc(N3CCc4ccccc43)c3cc[nH]c3n1)N(C(=O)CN(C)C)CC2 [GSK-2186269A] | Phenotype: Inactive; Curve_Description: None | – | 23.1 | –
COc1cc(C)c(NC(=O)CN(C)C)cc1Nc1nc(Nc2cccc(F)c2C(N)=O)c2cc[nH]c2n1 [GSK-2213727A] | Phenotype: Inactive; Curve_Description: None | Phenotype: Inactive; Curve_Description: None | – | –
COc1cc(C)c(N(C)C(=O)CN(C)C)cc1Nc1nc(Nc2cccc(F)c2C(N)=O)c2cc[nH]c2n1 [GSK-2219385A] | Phenotype: Inactive; Curve_Description: None | Phenotype: Inactive; Curve_Description: None | – | –
CNC(=O)c1ncccc1Nc1nc(Nc2cc3c(cc2OC)CCCN3C(=O)CN(C)C)nc2[nH]ccc12 [GSK-2220400A] | Phenotype: Inactive; Curve_Description: None | Phenotype: Activator; Curve_Description: None | – | –
NS(=O)(=O)c1cccc(N/C=C2\C(=O)Nc3ccccc32)c1 [GW275616X] | – | Phenotype: Inactive; Curve_Description: None | – | 18.3
Cc1ccc2c(c1)/C(=N/Nc1ccc(S(N)(=O)=O)cc1)C(=O)N2 [GW275944X] | Phenotype: Inactive; Curve_Description: None | Phenotype: Inactive; Curve_Description: None | – | –
NS(=O)(=O)c1ccc(N/N=C2\C(=O)Nc3ccc(-c4cnco4)cc32)cc1 [GW276655X] | Phenotype: Inactive; Curve_Description: None | Phenotype: Inactive; Curve_Description: None | – | –
CS(=O)(=O)Nc1ccc(N/C=C2\C(=O)Nc3ccccc32)cc1 [GW278681X] | – | – | 23.1 | 16.3
Cc1cc(Cl)cc2c1NC(=O)C2=NNc1ccc(S(N)(=O)=O)cc1 [GW279320X] | Phenotype: Inactive; Curve_Description: None | – | 29.1 | –
